In patent US5476966A, “Method for depletion of glutathione” (Cornell Research Foundation, Inc., priority 1995, dated 1995):

How the values were obtained:
resistant tumors = conditions: continuous intraperitoneal infusion of BSO; cited from earlier work
[1] = Detection of compound in mouse bile; type: in vivo
tumor cell lines = conditions: glucose oxidase, activated macrophages and granulocytes with phorbol myristate acetate; cited from earlier work
glutathione = experiment: Tissue glutathione levels after intraperitoneal administration of sulfoximines; type: in vivo, mouse; conditions: 2 mmol/Kg i.p.
Description: Male mice (Swiss Webster) were fasted overnight (about 16 hr). L-3-methylbuthionine-SR-sulfoximine (3 mBSO; L-S-3-methylbutyl homocysteine-SR-sulfoximine; L-S-isopentyl homocysteine-SR-sulfoximine), L-buthionine-SR-sulfoximine(BSO; L-S-butyl homocysteine-SR-sulfoximine), L-2-methylbuthiomine-SR-sulfoximine (2 mBSO, L-S-2methylbutyl homocysteine-SR-sulfoximine), or saline (0.9% NaCl) were administered to mice at 2 mmol/Kg intraperitoneally (50 mM, Ph ^~ 7). At the times indicated, plasma and tissues were obtained and assayed for glutathione (GSH+1/2 GSSG) as described by Anderson, Methods in Enzymology, 1985, 113:548-555.

resistant cells = conditions: glutathione depletion by BSO; cited from earlier work

CCCCS(=N)(=O)CCC(N)C(=O)O [BSO, L-S-butyl homocysteine-SR-sulfoximine]
life span (resistant tumors): increase in the life span | sensitization of tumors to phenylalanine mustard (resistant tumors): sensitization of the tumors to the effects of phenylalanine mustard was achieved | detection in mouse bile [1]: no BSO was detected | degree of cytolysis (tumor cell lines): enhanced the degree of cytolysis | % Decrease in glutathione (glutathione; brain, 2 hr): 10% | Glutathione level (glutathione; brain, 2 hr): 2.08 µmol/g | % Decrease in glutathione (glutathione; brain, 12 hr): 17% | Glutathione level (glutathione; brain, 12 hr): 1.93 µmol/g | % Decrease in glutathione (glutathione; heart, 2 hr): 14% | Glutathione level (glutathione; heart, 2 hr): 1.16 µmol/g | % Decrease in glutathione (glutathione; heart, 12 hr): 57% | Glutathione level (glutathione; heart, 12 hr): 0.56 µmol/g | % Decrease in glutathione (glutathione; kidney, 2 hr): 82% | Glutathione level (glutathione; kidney, 2 hr): 0.76 µmol/g | % Decrease in glutathione (glutathione; kidney, 12 hr): 79% | Glutathione level (glutathione; kidney, 12 hr): 0.75 µmol/g | % Decrease in glutathione (glutathione; liver, 2 hr): 72% | Glutathione level (glutathione; liver, 2 hr): 1.50 µmol/g | % Decrease in glutathione (glutathione; liver, 12 hr): 32% | Glutathione level (glutathione; liver, 12 hr): 3.37 µmol/g | % Decrease in glutathione (glutathione; plasma, 2 hr): 66% | Glutathione level (glutathione; plasma, 2 hr): 10.1 µM | % Decrease in glutathione (glutathione; plasma, 12 hr): 43% | Glutathione level (glutathione; plasma, 12 hr): 16.3 µM | reversal of drug resistance (resistant cells): reversal of drug resistance
